Holding throughout (format): biochemical
One assay deals with T1, Human PDE7B (hPDE7B) (Homo sapiens, UniProt Q9NP56).
T1 construct: made in house; host or cells: COS-7 cells
The experiment in a line: Measurement of PDE7 inhibitory activity (Experimental Example 1; residual cAMP, LANCE Ultra cAMP TR-FRET). The following applies: cAMP 3 nmol/L, room temperature 60 minutes. The procedure, abridged: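 hPDE7B from transfected COS-7 cells reacted with 3 nmol/L cAMP (final) and compound (2% DMSO) in 50 mmol/L Tris-HCl pH 7.5, 1 mmol/L MgCl2, 0.1% BSA, 0.5 mmol/L DTT, 60 min at room temperature. Reaction stopped with IBMX; residual cAMP measured by TR-FRET. Inhibition scaled between no-compound and no-enzyme controls.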
Background: TR-FRET usually uses a lanthanide donor and a delayed reading to cut background.

Another assay deals with T2, hPDE4D (Homo sapiens, UniProt Q08499).
T2 construct: purchased SB Drug Discovery
T2 sequence (Q08499 whole entry): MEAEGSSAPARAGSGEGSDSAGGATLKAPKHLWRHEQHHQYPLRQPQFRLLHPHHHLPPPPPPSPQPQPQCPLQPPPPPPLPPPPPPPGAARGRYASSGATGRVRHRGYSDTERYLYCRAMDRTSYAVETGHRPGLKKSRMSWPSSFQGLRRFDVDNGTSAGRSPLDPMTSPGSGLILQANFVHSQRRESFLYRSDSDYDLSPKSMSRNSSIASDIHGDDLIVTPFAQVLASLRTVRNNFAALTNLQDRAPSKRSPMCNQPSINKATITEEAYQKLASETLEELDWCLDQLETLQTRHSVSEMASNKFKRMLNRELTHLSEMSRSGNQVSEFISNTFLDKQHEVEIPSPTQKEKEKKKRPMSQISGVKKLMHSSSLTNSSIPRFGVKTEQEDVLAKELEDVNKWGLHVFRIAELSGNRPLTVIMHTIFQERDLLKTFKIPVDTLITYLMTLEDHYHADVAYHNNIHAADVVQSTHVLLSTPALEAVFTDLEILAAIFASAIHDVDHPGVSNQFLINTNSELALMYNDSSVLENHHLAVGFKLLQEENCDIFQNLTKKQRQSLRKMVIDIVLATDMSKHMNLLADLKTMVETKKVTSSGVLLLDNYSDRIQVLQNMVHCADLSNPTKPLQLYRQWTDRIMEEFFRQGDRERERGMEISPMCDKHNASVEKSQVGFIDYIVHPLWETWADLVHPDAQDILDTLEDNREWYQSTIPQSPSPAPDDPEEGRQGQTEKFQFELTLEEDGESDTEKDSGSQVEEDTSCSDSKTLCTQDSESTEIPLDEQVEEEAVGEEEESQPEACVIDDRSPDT
The experiment in a line: PDE4 inhibition assay (IC50), Experimental Example 3. To be noted: for inhibition at 10 µM: at 10 μmol/L; for inhibition at 10 µM / inhibition at 1 µM: read-out: inhibition rate (%) at prescribed concentration, PDE4; for pIC50: hPDE4D, read-out: PDE inhibition assay IC50, PDE4; for inhibition at 1 µM: at 1 μmol/L. How it is done:
(§1) PDE7 inhibitory assay was carried out by reacting the mixture of a compound, hPDE7B, and cAMP, and measuring the residual cAMP by a detection method using LANCE (registered trademark) Ultra cAMP Detection Kit (ParkinElmer). The compound was dissolved in DMSO, and diluted so that the concentration would become 50 times of the final concentration. The hPDE7B and cAMP were diluted with an assay buffer (50 mmol/L Tris-HCl, 1 mmol/L MgCl2, 0.1% BSA, 0.5 mmol/L DTT, pH7.5) so that the hPDE7B would have an appropriate enzyme activity and the concentration of cAMP would become 6 nmol/L. To a 96 well plate were added the compound (2 μL) (DMSO final concentration: 2%), hPDE7B (48 μL), and cAMP (50 μL) (concentration at the reaction: 3 nmol/L), and the resulting mixture was reacted at room temperature for 60 minutes. The reaction solution (20 μL) was subjected to a TR-FRET method according to the protocol specified by the kit to measure the concentration of the residual cAMP. In the assay, to a tracer solution specified by the kit was added 0.5 mmol/L of 3-isobutyl-1-methylxanthine (IBMX, nonselective PDE inhibitor) in order to stop the PDE enzyme reaction after the completion of reaction until the measurement.
(§2) The prediction of PDE7 selectivity was evaluated by comparing each IC50 value of a compound against PDE4, 8, and 10 with the IC50 value of said compound against PDE7B.
(§3) hPDE4D, hPDE8B, and hPDE10A were prepared by the same method as [Method for preparing samples 2].
(§4) PDE4, 8, and 10 inhibitory assays were carried out by the same method as [Assay procedure 1].
(§5) The reaction without a compound wad defined as “0% inhibition”, the reaction without each PDE was defined as “100% inhibition”, and the calculation of IC50 value was carried out by the same method as <Method for data calculation 1>.

Another assay concerns the target T3, hPDE8B (Homo sapiens, UniProt O95263).
T3 construct: purchased SB Drug Discovery
The experiment in a line: PDE8 inhibition assay (IC50), Experimental Example 3. The following applies: for pIC50: hPDE8B, read-out: PDE inhibition assay IC50, PDE8; for inhibition at 10 µM: at 10 μmol/L; for inhibition at 10 µM / inhibition at 1 µM: read-out: inhibition rate (%) at prescribed concentration, PDE8. How it is done:
as §1, §2, §3, §4, §5

A further assay concerns the target hPDE10A (Homo sapiens, UniProt Q9Y233). The experiment in a line: PDE10 inhibition assay (IC50), Experimental Example 3. To be noted: for inhibition at 10 µM: at 10 μmol/L, read-out: inhibition rate (%) at prescribed concentration, PDE10; for pIC50: hPDE10A, read-out: PDE inhibition assay IC50, PDE10. The procedure:
as §1, §2, §3, §4, §5

pIC50: −log10 of the molar value.

T1 sequence (Q9NP56 whole entry): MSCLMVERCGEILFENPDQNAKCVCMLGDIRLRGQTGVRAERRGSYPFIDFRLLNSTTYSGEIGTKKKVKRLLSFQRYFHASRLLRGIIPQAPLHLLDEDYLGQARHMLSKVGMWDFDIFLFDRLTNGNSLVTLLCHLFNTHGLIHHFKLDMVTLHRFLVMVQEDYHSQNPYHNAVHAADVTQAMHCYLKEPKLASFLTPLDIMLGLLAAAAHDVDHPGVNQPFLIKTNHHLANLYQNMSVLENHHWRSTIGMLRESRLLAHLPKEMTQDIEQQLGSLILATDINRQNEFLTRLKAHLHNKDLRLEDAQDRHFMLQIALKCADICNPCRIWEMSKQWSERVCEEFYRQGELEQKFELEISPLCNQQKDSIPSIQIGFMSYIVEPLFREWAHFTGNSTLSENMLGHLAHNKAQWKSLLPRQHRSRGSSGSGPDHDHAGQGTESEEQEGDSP
Chain of hPDE10A (Q9Y233 290-1055 limits assumed): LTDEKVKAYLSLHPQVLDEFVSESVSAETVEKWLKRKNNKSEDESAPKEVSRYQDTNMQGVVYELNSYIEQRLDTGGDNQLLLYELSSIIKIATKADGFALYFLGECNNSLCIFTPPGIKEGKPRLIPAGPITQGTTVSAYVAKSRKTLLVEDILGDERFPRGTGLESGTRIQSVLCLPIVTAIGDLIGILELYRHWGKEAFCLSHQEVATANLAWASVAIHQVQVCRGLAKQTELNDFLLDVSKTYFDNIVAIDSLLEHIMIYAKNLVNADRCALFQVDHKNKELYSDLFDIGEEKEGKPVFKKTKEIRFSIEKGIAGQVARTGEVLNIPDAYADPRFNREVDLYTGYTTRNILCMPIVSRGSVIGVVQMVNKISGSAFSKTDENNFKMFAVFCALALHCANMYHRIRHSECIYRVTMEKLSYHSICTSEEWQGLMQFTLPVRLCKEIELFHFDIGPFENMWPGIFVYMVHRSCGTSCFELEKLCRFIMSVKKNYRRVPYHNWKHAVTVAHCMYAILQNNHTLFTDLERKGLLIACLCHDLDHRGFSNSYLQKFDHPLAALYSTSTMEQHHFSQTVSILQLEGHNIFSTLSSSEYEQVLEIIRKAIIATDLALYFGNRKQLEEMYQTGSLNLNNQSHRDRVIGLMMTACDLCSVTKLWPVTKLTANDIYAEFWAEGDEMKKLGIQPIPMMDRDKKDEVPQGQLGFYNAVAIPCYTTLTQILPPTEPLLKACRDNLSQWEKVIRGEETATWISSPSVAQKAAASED
T3 sequence (O95263 whole entry): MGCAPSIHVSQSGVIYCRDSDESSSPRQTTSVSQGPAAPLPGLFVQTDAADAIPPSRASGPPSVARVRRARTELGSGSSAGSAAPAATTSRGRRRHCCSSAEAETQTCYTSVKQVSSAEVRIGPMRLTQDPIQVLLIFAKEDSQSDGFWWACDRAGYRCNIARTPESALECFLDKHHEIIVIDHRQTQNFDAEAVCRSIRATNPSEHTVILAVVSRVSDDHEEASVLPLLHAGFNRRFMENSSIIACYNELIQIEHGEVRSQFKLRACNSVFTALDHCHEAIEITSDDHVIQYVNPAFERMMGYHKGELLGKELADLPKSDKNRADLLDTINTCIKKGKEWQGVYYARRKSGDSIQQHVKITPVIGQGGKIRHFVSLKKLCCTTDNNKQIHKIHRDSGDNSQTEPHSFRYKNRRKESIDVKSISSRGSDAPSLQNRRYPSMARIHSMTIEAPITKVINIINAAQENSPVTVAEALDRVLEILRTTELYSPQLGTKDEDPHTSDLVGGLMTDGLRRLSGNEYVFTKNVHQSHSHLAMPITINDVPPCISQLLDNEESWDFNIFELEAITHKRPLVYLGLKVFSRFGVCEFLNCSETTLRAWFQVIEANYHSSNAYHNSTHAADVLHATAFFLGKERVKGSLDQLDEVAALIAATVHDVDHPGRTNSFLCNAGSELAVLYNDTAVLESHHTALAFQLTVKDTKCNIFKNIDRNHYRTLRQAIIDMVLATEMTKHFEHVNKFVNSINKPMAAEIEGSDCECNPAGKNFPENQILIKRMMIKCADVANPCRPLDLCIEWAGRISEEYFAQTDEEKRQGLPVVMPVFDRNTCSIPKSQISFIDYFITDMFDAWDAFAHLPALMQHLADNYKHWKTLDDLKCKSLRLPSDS

One may read the pIC50 as the negative decadic logarithm of the IC50, by convention in mol/L. As to `CN1CCC[C@H](n2nnc3c(N)ncnc32)C1` [Example 135, 3-[(3S)-1-methylpiperidin-3-yl]-3H-[1,2,3]triazolo[4,5-d]pyrimidin-7-amine], the negative-log IC50 (pIC50) at Human PDE7B (hPDE7B) was 6.51; at hPDE8B it was 5.03. Also, the inhibition at 10 µM at hPDE4D turned out to be 17%; on hPDE10A, 22%.
`C[C@@H]1CCCCN1c1nnc2c(N)nccn12` [Example 22, 3-(2-methylpiperidin-1-yl) [1,2,4]triazolo[4,3-a]pyrazin-8-amine]: the pIC50 on Human PDE7B (hPDE7B) is 7.40; on hPDE4D it was 5.08; at hPDE8B, 5.24; on hPDE10A, 5.26.
`CC1CCCN(c2nnc3c(N)nccn23)C1` (stereo not shown) [Example 24]: the pIC50 against Human PDE7B (hPDE7B) is 7.15; on hPDE4D, 5.20; on hPDE8B, 5.80; at hPDE10A, 4.89.
In the case of `Nc1ncnc2c1nnn2C1CCCC(C(F)(F)F)C1` (single isomer, unassigned) [Example 202, 3-[cis-3-(trifluoromethyl)cyclohexyl]-3H-[1,2,3]triazolo[4,5-d]pyrimidin-7-amine], the results for the negative logarithm of the IC50 (pIC50) at Human PDE7B (hPDE7B), on hPDE4D and at hPDE8B were 7.85, 5.27 and 5.94, respectively. The inhibition at 10 µM on hPDE10A was determined as 27%.
`CC1CCCCC1n1nnc2c(N)ncnc21` (single isomer, unassigned) [Example 192, 3-(trans-2-methylcyclohexyl)-3H-[1,2,3]triazolo[4,5-d]pyrimidin-7-amine]: the results for the negative logarithm of the IC50 (pIC50) on Human PDE7B (hPDE7B), on hPDE8B and at hPDE10A were 7.40, 5.38 and 5.08, respectively. Also, the inhibition at 10 µM at hPDE4D stood at 45%.
For `CC1(C)CCCC(n2nnc3c(N)ncnc32)C1` (racemic) [Example 128, 3-(3,3-dimethylcyclohexyl)-3H-[1,2,3]triazolo[4,5-d]pyrimidin-7-amine], the pIC50 on Human PDE7B (hPDE7B) was 7.70; at hPDE4D, 5.34; at hPDE8B, 5.88. On hPDE10A, the inhibition at 10 µM was 43%.
`Nc1nccn2c(N3CCCC4(CC4)C3)nnc12` [Example 44]: the negative-log IC50 (pIC50) on Human PDE7B (hPDE7B) is 7.10; on hPDE4D, 5.11; at hPDE8B it was 5.26; on hPDE10A, 4.62.
As to `Nc1ncnc2c1nnn2C1CCCC(C(F)F)C1` (single isomer, unassigned) [Example 200], the negative logarithm of the IC50 (pIC50) is 7.52 against Human PDE7B (hPDE7B), 6.27 at hPDE4D, 6.00 on hPDE8B and 4.78 on hPDE10A.
For the molecule `CC1CCC(C(F)(F)F)CC1c1nnc2c(N)ncnn12` (racemic) [Example 83, 3-[2-methyl-5-(trifluoromethyl)cyclohexyl][1,2,4]triazolo[3,4-f][1,2,4]triazin-8-amine], the pIC50 is over 8.00 against Human PDE7B (hPDE7B), 5.88 at hPDE8B and 5.52 on hPDE10A. The inhibition at 1 µM on hPDE4D came to 53%.
Take `CC1CCCC(c2nnc3c(N)ncnn23)C1` (single isomer, unassigned) [Example 240, 3-(cis-3-methylcyclohexyl) [1,2,4]triazolo[3,4-f][1,2,4]triazin-8-amine]: the negative logarithm of the IC50 (pIC50) on Human PDE7B (hPDE7B) was over 8.00; on hPDE10A, 5.51. Besides, the inhibition at 1 µM at hPDE4D turned out to be 86%. Further, the “inhibition rate (%) at prescribed concentration, PDE8” value against hPDE8B (at 1 μmol/L) is given as 95% at 1.
Turning to `Nc1nccn2c([C@H]3[C@@H]4CCC[C@@H]43)nnc12` [Example 179, 3-[(1R,5S,6r)-bicyclo[3.1.0]hex-6-yl][1,2,4]triazolo[4,3-a]pyrazin-8-amine], the pIC50 was 7.10 against Human PDE7B (hPDE7B), 5.33 on hPDE4D, 5.40 at hPDE8B and 4.75 on hPDE10A.
With `CC1CC(C)CN(c2nnc3c(N)nccn23)C1` (single isomer, unassigned) [Example 226, 3-[trans-3,5-dimethylpiperidin-1-yl][1,2,4]triazolo[4,3-a]pyrazin-8-amine], the negative-log IC50 (pIC50) against Human PDE7B (hPDE7B) is 8.00; at hPDE4D, 5.44; at hPDE8B, 5.38; on hPDE10A, 5.28.
Consider `Nc1cccn2c(C3CCCCC3)nnc12` [Example 186, 3-cyclohexyl[1,2,4]triazolo[4,3-a]pyridin-8-amine], for which the pIC50 against Human PDE7B (hPDE7B) was 6.34. Also, the values for the inhibition at 10 µM at hPDE4D, on hPDE8B and at hPDE10A were -5%, -1% and 7%, respectively.
With `Cc1cnc(N)c2nnc(C3CCCCC3)n12` [Example 171, 3-cyclohexyl-5-methyl[1,2,4]triazolo[4,3-a]pyrazin-8-amine], the pIC50 against Human PDE7B (hPDE7B) was 7.15; on hPDE8B it was 5.53; at hPDE10A, 5.14. On hPDE4D, the inhibition at 10 µM was 48%.
For the molecule `Nc1nccn2c(C3CCC4CC4C3)nnc12` (single isomer, unassigned) [Example 218, 3-(bicyclo[4.1.0]hept-3-yl) [1,2,4]triazolo[4,3-a]pyrazin-8-amine], the negative-log IC50 (pIC50) was 7.10 on Human PDE7B (hPDE7B), 5.39 on hPDE4D, 5.59 at hPDE8B and 5.52 at hPDE10A.
For `CC1CCCCC1c1nnc2c(N)ncnn12` (single isomer, unassigned) [Example 238, 3-(cis-2-methylcyclohexyl) [1,2,4]triazolo[3,4-f][1,2,4]triazin-8-amine], the pIC50 at Human PDE7B (hPDE7B) was over 8.00; on hPDE10A, 5.72. In addition, the inhibition at 1 µM turned out to be 63% on hPDE4D and 51% on hPDE8B (at 1 μmol/L).
On to `CC1CCN(c2nnc3c(N)nccn23)C(C)C1` (racemic) [Example 61, 3-(2,4-dimethylpiperidin-1-yl) [1,2,4]triazolo[4,3-a]pyrazin-8-amine], for which the negative logarithm of the IC50 (pIC50) against Human PDE7B (hPDE7B) was 7.22; on hPDE4D, 5.24; on hPDE8B, 4.74; on hPDE10A it was 4.79.
`Nc1nccn2c(N3C4CCCC3CC4)nnc12` [Example 67]: the pIC50 is 7.05 against Human PDE7B (hPDE7B), 4.68 on hPDE4D, 4.82 on hPDE8B and 4.50 at hPDE10A.
In the case of `Nc1ncnc2c1nnn2[C@@H]1CCCOC1` [Example 90], the negative-log IC50 (pIC50) against Human PDE7B (hPDE7B) is 6.92; at hPDE4D, 5.43; at hPDE10A, 4.72. Further, the inhibition at 1 µM on hPDE8B (at 1 μmol/L) came to 59%.
In the case of `CCc1cnc(N)c2nnc(N3CCCC(C)(C)C3)n12` [Example 42, 3-(3,3-dimethylpiperidin-1-yl)-5-ethyl[1,2,4]triazolo[4,3-a]pyrazin-8-amine], the negative-log IC50 (pIC50) is over 8.00 at Human PDE7B (hPDE7B), 5.52 on hPDE4D, 5.77 on hPDE8B and 5.28 on hPDE10A.
Consider `Nc1ncnc2c1nnn2C1CCCCCC1` [Example 110, 3-cycloheptyl-3H-[1,2,3]triazolo[4,5-d]pyrimidin-7-amine], for which the pIC50 is 7.52 at Human PDE7B (hPDE7B), 5.46 at hPDE4D and 6.23 at hPDE8B. In addition, the inhibition at 10 µM at hPDE10A was 33%.
Turning to `Nc1nccn2c(C3CCc4[nH]ncc4C3)nnc12` (stereo not shown) [Example 159], the pIC50 against Human PDE7B (hPDE7B) is 7.22; at hPDE4D it was 5.32; on hPDE8B it was 5.45; at hPDE10A it was 4.98.
In the case of `Nc1ncnc2c(C3CCCCC3)noc12` [Example 188, 3-cyclohexylisoxazolo[4,5-d]pyrimidin-7-amine], the figures for the pIC50 against Human PDE7B (hPDE7B) and on hPDE8B were 6.68 and 5.13, respectively. Further, the inhibition at 10 µM was determined as 38% on hPDE4D and 50% at hPDE10A.
In the case of `Nc1nccn2c(N3CCCCCC3)nnc12` [Example 29], the negative logarithm of the IC50 (pIC50) at Human PDE7B (hPDE7B) is 7.10; at hPDE4D it was 5.27; at hPDE8B it was 5.29; at hPDE10A, 4.92.
In the case of `Nc1nccn2c(C3(F)CCCCC3)nnc12` [Example 142, 3-(1-fluorocyclohexyl) [1,2,4]triazolo[4,3-a]pyrazin-8-amine], the pIC50 against Human PDE7B (hPDE7B) is 7.30; on hPDE4D, 5.24. Besides, the inhibition at 10 µM on hPDE8B was determined as 49%; on hPDE10A, 48%.

For the origin of these results see US20190185479A1, “BICYCLIC NITROGENATED HETEROCYCLIC COMPOUND” (MITSUBISHI TANABE PHARMA CORPORATION, priority 2016, published 2019).
